From patent US4218566A, “11-(2-Hydroxyethylthio) prostenoic acid E and F series derivatives” (American Cyanamid Company, priority 1978, dated 1980)
Where two headings read alike, the source gives them in different places.

What was measured:
Format in all cases: in vivo
[1] = test system: bronchospasms elicited by histamine; assay: bronchodilator activity, (modified) guinea pig Konzett procedure, histamine-induced bronchospasm; details: Cavia porcellus, iv
Protocol: (§1) Bronchodilator activity is determined in guinea pigs against bronchospasms elicited by intravenous injections of 5-hydroxytryptamine, histamine of acetylcholine by the Konzett procedure. [See J. Lulling, P. Lievens, F. El Sayed and J. Prignot, Arzneimittel-Forschung, 18, 995 (1968)].
(§2) In the Table I which follows, bronchodilator activity for representative compounds of this invention against one or more of the three spasmogenic agents is expressed as an ED50 determined from the results obtained with three logarithemic cumulative intravenous doses.
(§3) The compounds dl-methyl ester of 11-deoxy-11α-(2-hydroxyethylthio)-15α-prostaglandin E2 (hereinafter called Compound I) and dl-methyl ester of 11-deoxy-11α-(2-hydroxyethoxy)-15α-prostaglandin E2 (hereinafter called Compound II) were submitted for testing in the modified Konzett procedure [J. Lulling, P. Lievens, F. El Sayed and J. Prignot, Arzneimittel-Forschung, 18, 995 (1968)].
(§4) The Modified Guinea Pig Konzett Assay measures the protective effects of experimental compounds against induced bronchospasms in guinea pigs.
(§5) Guinea pigs of either sex, weighing 300 to 500 g. are anesthetized by intraperitoneal injection of urethane at 1.5 g./kg. and curarized by intravenous injection of gallamine at 4 mg./kg. They are artificially ventilated through a tracheal cannula. Respiratory volume is adjusted according to the weight of the animal and the rate of the pump, in such a way as to obtain an insufflation pressure of 15-30 cm. of water.
(§6) The two jugular veins are catheterized, the first one being used for curarization and administration of the test compounds, the other one is used for the injection of the spasmogenic agent. Injections are made at selected speeds with a perfusion pump. The intratracheal pressure is measured with a transducer connected to the tracheal cannula and recorded on a polygraph.
(§7) Bronchial spasms are produced by intravenous injection of acetylcholine hydrochloride, histamine dihydrochloride or 5-hydroxy-tryptamine creatinine sulfate. The speed of injection of the spasmogenic solution and its concentration are chosen to give a dose (kept constant throughout the test) which is able to produce a consistant increase in the tracheal pressure. The injections are repeated every 5 minutes throughout the entire test by means of a program controlled automatic infusion syringe. When three successive control bronchoconstrictions of similar intensity are obtained, the animal is considered to be ready for the assay and receives the first dose of the test compound approximately two minutes later.
(§8) The compound being tested is suspended in 15% ethanol and injected through the jugular vein. The injection is repeated twice per animal at 15 minute intervals, so that three doses, in logarithmic progression, are assayed. Three spasms are recorded for each dose. The "bronchodilating" activity of each compound is assayed in at least four guinea pigs for each of the three spasmogenic substances. The amplitude of the three spasms (i.e. the difference between the maximum total tracheal pressure during the spasms and the normal insufflation pressure without spasm) following the administration of the drug are expressed in cm. of water.
(§9) When the average percent of variation (treated vs. control) of the first spasm following any dose of the compound reaches at least -50%, a regression line of the percent of variation versus the dose is computed in a semi-logarithmic system. The ED50 (dose producing a -50% variation) is then calculated. The same determination is made for the second and third spasm following the administration of a dose of the test compound if at some dose the variation percent reaches -50%.

[2] = test system: bronchospasms elicited by 5-hydroxytryptamine; assay: bronchodilator activity, (modified) guinea pig Konzett procedure, 5-hydroxytryptamine-induced bronchospasm; details: Cavia porcellus, iv
Protocol: as §1, §2, §3, §4, §5, §6, §7, §8, §9

[3] = test system: bronchospasms elicited by acetylcholine; assay: bronchodilator activity, (modified) guinea pig Konzett procedure, acetylcholine-induced bronchospasm; details: Cavia porcellus, iv
Protocol: as §1, §2, §3, §4, §5, §6, §7, §8, §9

bronchospasms = assay: bronchodilator activity overall, guinea pig Konzett assay; details: for Potency (Range 0-4): score
Protocol: The natural PGE1, PGE2 and PGE3 compounds are potent in causing multiple biological responses, even at low doses. As a bronchodilator, the natural prostaglandins have an inconveniently short duration of activity.
as §1, §2, §3, §4, §5, §6, §7, §8, §9

[4] = spasm 1, read-out: ED50 vs. Histamine Dihydrochloride
[5] = spasm 2, read-out: ED50 vs. Histamine Dihydrochloride
[6] = spasm 3, read-out: ED50 vs. Histamine Dihydrochloride
[7] = spasm 1, read-out: ED50 vs. 5-Hydroxytryptamine Creatinine Sulfate
[8] = spasm 2, read-out: ED50 vs. 5-Hydroxytryptamine Creatinine Sulfate
[9] = spasm 3, read-out: ED50 vs. 5-Hydroxytryptamine Creatinine Sulfate
[10] = spasm 1, read-out: ED50 vs. Acetylcholine Hydrochloride
[11] = spasm 2, read-out: ED50 vs. Acetylcholine Hydrochloride
[12] = histamine, first line of values for the compound, read-out: ED50 HIST.
[13] = histamine, second line of values for the compound, read-out: ED50 HIST.
[14] = 5-HT, first line of values for the compound, read-out: ED50 5-HT
[15] = acetylcholine, first line of values for the compound, read-out: ED50 ACH.
[16] = acetylcholine, second line of values for the compound, read-out: ED50 ACH.
[17] = 5-HT, second line of values for the compound, read-out: ED50 5-HT
[18] = 5-HT, third line of values for the compound, read-out: ED50 5-HT

SMILES | ED50 [1, 4] [mg/kg] | ED50 [1, 5] [mg/kg] | ED50 [1, 6] [mg/kg] | ED50 [2, 7] [mg/kg] | ED50 [2, 8] [mg/kg] | ED50 [2, 9] [mg/kg] | ED50 [3, 10] [mg/kg] | ED50 [3, 11] [mg/kg] | bronchodilator potency of Compound I compared with Compound II, statistical analysis (bronchospasms; Compound I vs Compound II) | ED50 [1, 12] [mg/kg] | ED50 [1, 13] [mg/kg] | ED50 [2, 14] [mg/kg] | ED50 [3, 15] [mg/kg] | ED50 [3, 16] [mg/kg] | Potency (Range 0-4) (bronchospasms) | ED50 [2, 17] [mg/kg] | ED50 [2, 18] [mg/kg] | ED50 ([1]; histamine, third line of values for the compound, read-out: ED50 HIST.) [mg/kg] | ED50 ([3]; acetylcholine, third line of values for the compound, read-out: ED50 ACH.) [mg/kg]
CCCCC[C@H](O)/C=C/[C@H]1[C@H](SCCO)CC(=O)[C@@H]1C/C=C\CCCC(=O)OC (relative stereo) [Compound I, dl-methyl ester of 11-deoxy-11α-(2-hydroxyethylthio)-15α-prostaglandin E2] | 0.0157 | 0.0671 | 0.452 | 0.0176 | 0.0629 | 0.153 | 0.033 | 0.289 | significantly more potent than Compound II as a bronchodilator |  |  |  |  |  |  |  |  |  | 
CCCCC[C@H](O)/C=C/[C@H]1[C@H](OCCO)CC(=O)[C@@H]1C/C=C\CCCC(=O)OC (relative stereo) [Compound II, dl-methyl ester of 11-deoxy-11α-(2-hydroxyethoxy)-15α-prostaglandin E2, reference compound] | 0.152 | 0.707 | 1.46 | 0.119 | 0.495 | 1.28 | 0.506 | 3.31 |  |  |  |  |  |  |  |  |  |  | 
CCCCC[C@H](O)/C=C/[C@H]1C(SCCO)CC(=O)[C@@H]1C/C=C\CCCC(=O)OC (stereo partly drawn) [Example 223, Methyl Nat. 15α-hydroxy-9-oxo-11α/β(2-hydroxyethylthio)-5-cis,13-trans-prostadienoate] |  |  |  |  |  |  |  |  |  | 0.00424 | 0.0442 | 0.0088 | 0.0275 | 0.391 | 4 |  |  |  | 
CCCCC(C)(O)C/C=C/C1C(SCCO)CC(=O)C1C/C=C\CCCC(=O)O (stereo not drawn) [Example 225, 11α/β-(2-hydroxyethylthio)-16-hydroxy-16-methyl-9-oxo-5-cis,13-trans-prostadienoic acid] |  |  |  |  |  |  |  |  |  | 0.02 | 0.108 | 0.017 | 0.034 |  | 3 | 0.077 | 0.257 |  | 
CCCCC(O)C/C=C/C1C(SCCO)CC(=O)C1CCCCCCC(=O)O (stereo not drawn) [Example 226, 11α/β(2-hydroxyethylthio)-16-hydroxy-9-oxo-13-trans-prostenoic acid] |  |  |  |  |  |  |  |  |  | 0.0195 | 0.15 | 0.019 | 0.053 |  | 3 | 0.082 | 0.288 |  | 
CCCCC[C@H](O)/C=C/[C@H]1C(SCCO)CC(=O)[C@@H]1CCCCCCC(=O)O (stereo partly drawn) [Example 228, Nat. 11α/β-(2-hydroxyethylthio)-15α-hydroxy-9-oxo-13-transprostenoic acid] |  |  |  |  |  |  |  |  |  | 0.0047 | 0.036 | 0.0055 | 0.011 | 0.061 | 4 | 0.034 | 0.078 | 0.071 | 0.221
CCCCC[C@H](O)/C=C/[C@H]1[C@H](SCCO)CC(=O)[C@@H]1C/C=C\CCCC(=O)OC [Methyl Nat.-11α-(2-hydroxyethylthio)-15α-hydroxy-9-oxo-5-cis,13-trans-prostadienoate] |  |  |  |  |  |  |  |  |  | 0.00487 |  | 0.0059 | 0.0111 |  | 4 | 0.035 |  |  | 
CCCCC[C@H](O)/C=C/[C@H]1[C@@H](SCCO)CC(=O)[C@@H]1C/C=C\CCCC(=O)OC [methyl nat.-11β(2-hydroxyethylthio)-15α-hydroxy-9-oxo-5-cis,13-trans prostadienoate] |  |  |  |  |  |  |  |  |  | 0.0455 |  | 0.06 | 0.0628 | 0.671 | 4 |  |  |  | 
